≈ marks a conversion by molar mass, not a printed value. Read-outs that look alike come from different tables or passages of the source.
Columns and labels:
[1] = test system: S. aureus ATCC 25923; experiment: Antibacterial activity, pre-exposure (planktonic cells and biofilm formation); type: cell-based, Staphylococcus aureus; conditions: for MIC / inhibition at 5 µM / inhibition at 10 µM / inhibition at 15 µM / inhibition at 25 µM: Staphylococcus aureus, ATCC25923; for inhibition at 5 µM / inhibition at 10 µM / inhibition at 15 µM / inhibition at 25 µM / Average inhibition %, biofilms viability / Average inhibition %, planktonic cells viability: pre-exposure, ± SD
Procedure, shortened: (§1)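 Pre-exposure format: compounds added with bacteria, 18 h aerobic at 37 °C with shaking. Planktonic growth read by OD and resazurin (20 μM final) fluorescence; biofilms by resazurin viability then crystal violet biomass (A595). Resazurin incubation time/temperature varied by species.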

[2] = test system: S. aureus ATCC 25923; experiment: Antibacterial activity, post-exposure on preformed 18-h-old biofilms; type: cell-based, Staphylococcus aureus; conditions: ± SD; for inhibition at 25 µM / inhibition at 50 µM / inhibition at 100 µM / inhibition at 200 µM: Staphylococcus aureus; for inhibition at 25 µM: ATCC25923, 25 µM; for inhibition at 50 µM: ATCC25923, 50 µM; for inhibition at 100 µM: ATCC25923, 100 µM; for inhibition at 200 µM: ATCC25923, 200 µM
Procedure, shortened: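 Biofilms grown 18 h without compound, medium then replaced and compound added for a further 24 h. Planktonic OD and resazurin (20 μM final) fluorescence (ex 560/em 590 nm) read; washed biofilms stained with 20 μM resazurin 30 min at 37 °C, then ethanol-fixed and crystal violet-stained, absorbance 595 nm.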

[3] = test system: A. baumannii NCTC 13423; experiment: Antibacterial activity, pre-exposure; type: cell-based, Acinetobacter baumannii; conditions: for Average inhibition %, biofilms viability / Average inhibition %, planktonic cells viability / inhibition at 10 µM / inhibition at 15 µM / inhibition at 25 µM / inhibition at 50 µM: A. baumannii NCTC 13423, pre-exposure, ± SD; for inhibition at 10 µM / inhibition at 15 µM / inhibition at 25 µM / inhibition at 50 µM / MIC: Acinetobacter baumannii, NCTC13423
Procedure, shortened: as §1

[4] = test system: P. aeruginosa ATCC 9027; experiment: Antibacterial activity, pre-exposure; type: cell-based, Pseudomonas aeruginosa; conditions: for Average inhibition %, biofilms viability / Average inhibition %, planktonic cells viability / inhibition at 50 µM / inhibition at 100 µM / inhibition at 150 µM / inhibition at 200 µM: P. aeruginosa ATCC 9027, pre-exposure, ± SD; for MIC / inhibition at 50 µM / inhibition at 100 µM / inhibition at 150 µM / inhibition at 200 µM: Pseudomonas aeruginosa; for inhibition at 50 µM / inhibition at 100 µM / inhibition at 150 µM / inhibition at 200 µM: ATCC9027
Procedure, shortened: as §1

[5] = 10 µM, read-out: Average inhibition %, biofilms biomass
[6] = 10 µM, read-out: Average inhibition %, planktonic cells turbidity
[7] = 15 µM, read-out: Average inhibition %, biofilms biomass
[8] = 15 µM, read-out: Average inhibition %, planktonic cells turbidity
[9] = 25 µM, read-out: Average inhibition %, biofilms biomass
[10] = 25 µM, read-out: Average inhibition %, planktonic cells turbidity
[11] = read-out: Average inhibition %, biofilms biomass
[12] = read-out: Average inhibition %, planktonic cells turbidity
[13] = 50 µM, read-out: Average inhibition %, biofilms biomass
[14] = 50 µM, read-out: Average inhibition %, planktonic cells turbidity

In the case of CCCCCCCCc1cccc(CCC(N)(CO)CO)c1 [Compound 43, 2-Amino-2-(3-octylphenethyl)propane-1,3-diol], the MIC ([1]; lowest concentration with no visible growth (>90% inhibition of turbidity and viability of planktonic cells), 18 h, read-out: MIC S. aureus ATCC 25923) is reported as 15 to 25 µM (≈ 4.61 to 7.69 µg/mL), the inhibition at 5 µM ([1]; 5 µM, read-out: Average inhibition %, biofilms biomass) is reported as 33.6 ± 16% and the inhibition at 5 µM ([1]; 5 µM, read-out: Average inhibition %, planktonic cells turbidity) is reported as 25.6 ± 36.8%. The inhibition at 10 µM [1, 5] was 29.2 ± 14.5%, the inhibition at 10 µM [1, 6] was 36.2 ± 26.1% and the inhibition at 15 µM [1, 7] was 66.4 ± 27.2%. It also gave an inhibition at 15 µM [1, 8] of 61.4 ± 37.8%, an inhibition at 25 µM [1, 9] of 92.2 ± 6.9% and an inhibition at 25 µM [1, 10] of 98.9 ± 0.6%. The MIC ([1]; read-out: MIC (S. aureus)) was 15 to 25 µM (≈ 4.61 to 7.69 µg/mL), the “Average inhibition %, biofilms viability” value ([1]; 5 µM) was 17.4 ± 8.1% and the “Average inhibition %, planktonic cells viability” value ([1]; 5 µM) was 12.3 ± 21.4%. For the same compound, the “Average inhibition %, biofilms viability” value ([1]; 10 µM) was 29.1 ± 5.4%, the “Average inhibition %, planktonic cells viability” value ([1]; 10 µM) was 14.8 ± 15.3% and the “Average inhibition %, biofilms viability” value ([1]; 15 µM) was 52.5 ± 43.2%. The “Average inhibition %, planktonic cells viability” value ([1]; 15 µM) was 36.1 ± 55.2%, the “Average inhibition %, biofilms viability” value ([1]; 25 µM) was 99.7 ± 0% and the “Average inhibition %, planktonic cells viability” value ([1]; 25 µM) was 99.9 ± 0.2%. The “Average inhibition %, biofilms viability” value ([2]; 25 µM) was 14.4 ± 14%, the “Average inhibition %, planktonic cells viability” value ([2]; 25 µM) was 0 ± 0% and the “Average inhibition %, biofilms viability” value ([2]; 50 µM) was 23.1 ± 5.1%. The “Average inhibition %, planktonic cells viability” value ([2]; 50 µM) was 12.8 ± 18.3%, the “Average inhibition %, biofilms viability” value ([2]; 100 µM) was 35.4 ± 15.6% and the “Average inhibition %, planktonic cells viability” value ([2]; 100 µM) was 61.4 ± 27.6%. For the same compound, the “Average inhibition %, biofilms viability” value ([2]; 200 µM) was 75.7 ± 18.5%, the “Average inhibition %, planktonic cells viability” value ([2]; 200 µM) was 98 ± 3.3% and the inhibition at 25 µM [2, 11] was 38.4 ± 9.2%. For the same compound, the inhibition at 25 µM [2, 12] was 6.1 ± 8%, the inhibition at 50 µM [2, 11] was 50.1 ± 4.6% and the inhibition at 50 µM [2, 12] was 33.5 ± 18.7%. The inhibition at 100 µM [2, 11] was 64.7 ± 9.1%, the inhibition at 100 µM [2, 12] was 48.9 ± 21.5% and the inhibition at 200 µM [2, 11] was 79.9 ± 12%. The inhibition at 200 µM [2, 12] was 79.1 ± 6.3%, the “Average inhibition %, biofilms viability” value ([3]; 10 µM) was 0.2 ± 0.4% and the “Average inhibition %, planktonic cells viability” value ([3]; 10 µM) was 5.5 ± 0.6%. For the same compound, the “Average inhibition %, biofilms viability” value ([3]; 15 µM) was 99.2 ± 1.1%, the “Average inhibition %, planktonic cells viability” value ([3]; 15 µM) was 99.8 ± 0.1% and the “Average inhibition %, biofilms viability” value ([3]; 25 µM) was 100 ± 1.1%. For the same compound, the “Average inhibition %, planktonic cells viability” value ([3]; 25 µM) was 99.8 ± 0.2%, the “Average inhibition %, biofilms viability” value ([3]; 50 µM) was 98.7 ± 2.5% and the “Average inhibition %, planktonic cells viability” value ([3]; 50 µM) was 99.8 ± 0.1%. For the same compound, the inhibition at 10 µM [3, 5] was 0.6 ± 1%, the inhibition at 10 µM [3, 6] was 0% and the inhibition at 15 µM [3, 7] was 76.9 ± 3.5%. The inhibition at 15 µM [3, 8] was 99.1 ± 1.1%, the inhibition at 25 µM [3, 9] was 81.7 ± 1% and the inhibition at 25 µM [3, 10] was 99.1 ± 1%. For the same compound, the inhibition at 50 µM [3, 13] was 79 ± 3.8%, the inhibition at 50 µM [3, 14] was 98.3 ± 0.9% and the MIC ([3]; pre-exposure, Inactive = no activity up to 50 μM, > = some inhibition but no MIC reached, read-out: MIC A. baumannii NCTC 13423) was 15 µM (≈ 4.61 µg/mL). The MIC ([3]; supplementary molecular formula strings sheet, read-out: MIC (A. baumannii)) was 15 µM (≈ 4.61 µg/mL), the “Average inhibition %, biofilms viability” value ([4]; 50 µM) was 53.1 ± 41.1% and the “Average inhibition %, planktonic cells viability” value ([4]; 50 µM) was 98.1 ± 0.5%. For the same compound, the “Average inhibition %, biofilms viability” value ([4]; 100 µM) was 99.2 ± 2%, the “Average inhibition %, planktonic cells viability” value ([4]; 100 µM) was 99 ± 1.3% and the “Average inhibition %, biofilms viability” value ([4]; 150 µM) was 99.9 ± 0.9%. The “Average inhibition %, planktonic cells viability” value ([4]; 150 µM) was 99.4 ± 0.7%, the “Average inhibition %, biofilms viability” value ([4]; 200 µM) was 100.3 ± 0.5% and the “Average inhibition %, planktonic cells viability” value ([4]; 200 µM) was 99.9 ± 0.1%. The MIC ([4]; ATCC9027, pre-exposure, Inactive = no activity up to 200 μM, > = some inhibition but no MIC reached, read-out: MIC P. aeruginosa ATCC 9027) was 50 to 100 µM (≈ 15.4 to 30.7 µg/mL), the MIC ([4]; ATCC9027, supplementary molecular formula strings sheet, read-out: MIC (P. aeruginosa)) was 50 to 100 µM (≈ 15.4 to 30.7 µg/mL) and the inhibition at 50 µM [4, 13] was 52.1 ± 19.8%. For the same compound, the inhibition at 50 µM [4, 14] was 94.5 ± 0.8%, the inhibition at 100 µM ([4]; 100 µM, read-out: Average inhibition %, biofilms biomass) was 82.4 ± 25.2% and the inhibition at 100 µM ([4]; 100 µM, read-out: Average inhibition %, planktonic cells turbidity) was 97.2 ± 2.5%. For the same compound, the inhibition at 150 µM ([4]; 150 µM, read-out: Average inhibition %, biofilms biomass) was 89.4 ± 13.3%, the inhibition at 150 µM ([4]; 150 µM, read-out: Average inhibition %, planktonic cells turbidity) was 96.9 ± 1.2% and the inhibition at 200 µM ([4]; 200 µM, read-out: Average inhibition %, biofilms biomass) was 94.3 ± 1.4%. It also gave an inhibition at 200 µM ([4]; 200 µM, read-out: Average inhibition %, planktonic cells turbidity) of 97.5 ± 0.3%.
